Laboratory results: patent US7700717B2, “Photo-active backbone cyclized somatostatin analogs for photodynamic therapy and imaging” (DeveloGen Israel Ltd., priority 2002, dated 2010)

Columns and labels:
[1] = tested on: subcutaneously implanted H69 human lung cancer; experiment: Ex vivo biodistribution by fiber-optic spectrofluorimetry (FOS) in tissues of mice bearing H69 tumors; conditions: for Fluorescence intensity (a.u.), Kidney / Fluorescence intensity (a.u.), Liver / Fluorescence intensity (a.u.), Lung / Fluorescence intensity (a.u.), Pancreas / Fluorescence intensity (a.u.), Skin / Fluorescence intensity (a.u.), Spleen / Fluorescence intensity (a.u.), Tumor: ex vivo, 24 hours after i.v. administration, FOS
Description: An argon ion laser (Melles Griot, 43 series) was coupled to a spectrofluorophotometer (Shimadzu, model RF-5301PC) using a bifurcated fiber bundle (Oriel, Stratford, Conn., model 77533). Laser light (488 nm) was passed via one leg of the fiber bundle, the common end tip of the bundle was fixed at a distance of 1 mm from a tissue sample, while the end tip of the second leg was mounted in front of the entrance slit of the spectrofluorophotometer. Laser irradiation from the fiber was set to 5 mW, as measured with a laser power meter (Laserstar, Ophir, Israel). An average of three recordings was used for each data point.
For control, one mouse was injected with fluorescein.
Fluorescence measurements were performed: • 1. […] Ex vivo 24 hours post injection using FOS. • 3.

[2] = tested on: subcutaneously implanted H69 human lung cancer; conditions: mouse, iv
Method: Balb/c nude mice xenografts inoculated subcutaneously with the human small cell lung cancer cell line, H69.
Hundred μl of each agent (1 mM stock) were dissolved in 0.5 ml of saline and injected intravenously. For control, one mouse was injected with fluorescein.
In vivo during 24 hours after agent administrations using point (˜1 mm^2 area) measurements by fiber-optic spectroscopic system (FOS). • 2. Ex vivo 24 hours post injection using FOS. • 3.

hSST-R2 = target: T1, hSST-R2 (Homo sapiens, UniProt P30874); experiment: Inhibition of 125I-Tyr11-SRIF (SRIF-14) binding to membranes of CHO cells expressing cloned human SST-R2; conditions: Table 2; affinity for hSST-R2, cloned human receptor in CHO cells
T1 construct: expressed in transfected cells
T1 sequence (P30874 whole entry): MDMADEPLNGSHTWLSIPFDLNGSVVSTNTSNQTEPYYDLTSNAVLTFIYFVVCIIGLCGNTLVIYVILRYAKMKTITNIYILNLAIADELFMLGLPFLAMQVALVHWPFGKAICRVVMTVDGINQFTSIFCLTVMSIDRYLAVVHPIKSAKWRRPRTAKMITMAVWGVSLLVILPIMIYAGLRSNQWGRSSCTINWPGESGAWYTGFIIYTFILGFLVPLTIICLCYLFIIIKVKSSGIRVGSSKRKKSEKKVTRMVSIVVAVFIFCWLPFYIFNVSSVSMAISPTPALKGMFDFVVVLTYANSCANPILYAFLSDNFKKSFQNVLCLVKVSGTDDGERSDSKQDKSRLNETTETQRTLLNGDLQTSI
Method: The SST analogs were tested for their potency in inhibition of the binding of ^125I-Tyr^11-SRIF (based on the method described by Raynor et. al., Molecular Pharmacology 43: 838, 1993) to membrane preparations expressing transmembrane SST receptors (SST-R1, 2, 3, 4 or 5). The receptor preparations used for these tests were either from the cloned human receptors selectively and stably expressed in Chinese Hamster Ovary (CHO) cells or from cell lines naturally expressing the SST-Rs. Typically, cell membranes were homogenized in Tris buffer in the presence of protease inhibitors and incubated for 30-40 minutes with ^125I-Tyr^11-SRIF with different concentrations of the tested sample. The binding reactions were filtered, the filters were washed and the bound radioactivity was counted in […] after addition of scintillation solution. Non specific binding was defined as the radioactivity remaining bound in the presence of 1 μM unlabeled SRIF-14.
The receptor membrane preparations used for these tests were from the cloned human receptors selectively and stably expressed in CHO cells and the radiolabelled analog used was (3-[^125]tyrosyl^11)SRIF-14. Table 2 above describes the results of the binding assays of selected analogs to the human cloned SST-R2.
The compounds were tested at a concentration of 10 nM, for SRIF-14 displacement on hSST-R2 expressed cells.

SST-R2 and SST-R5 = conditions: cited from earlier work
hSST-R4 = hSST-R4 (Homo sapiens, UniProt P31391); conditions: cited from earlier work
Sequence of hSST-R4 (P31391 whole entry): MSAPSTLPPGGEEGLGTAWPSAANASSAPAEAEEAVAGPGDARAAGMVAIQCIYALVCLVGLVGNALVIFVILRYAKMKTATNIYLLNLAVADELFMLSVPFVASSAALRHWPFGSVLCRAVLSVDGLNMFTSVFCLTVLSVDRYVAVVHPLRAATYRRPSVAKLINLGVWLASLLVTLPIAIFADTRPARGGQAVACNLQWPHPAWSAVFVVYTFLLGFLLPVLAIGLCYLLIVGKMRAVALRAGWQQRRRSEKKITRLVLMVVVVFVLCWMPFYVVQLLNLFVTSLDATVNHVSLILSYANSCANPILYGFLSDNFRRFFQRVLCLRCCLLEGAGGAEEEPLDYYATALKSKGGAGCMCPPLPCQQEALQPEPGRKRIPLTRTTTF

Fluorescence intensity (a.u.), Kidney [1] [a.u.] | Fluorescence intensity (a.u.), Liver [1] [a.u.] | Fluorescence intensity (a.u.), Lung [1] [a.u.] | Fluorescence intensity (a.u.), Pancreas [1] [a.u.] | Fluorescence intensity (a.u.), Skin [1] [a.u.] | Fluorescence intensity (a.u.), Spleen [1] [a.u.] | Fluorescence intensity (a.u.), Tumor [1] [a.u.] | tumor fluorescence in ex vivo spectral images [2] | IC50 (hSST-R2) [nM] | Compound | fluorescence in normal organs in ex vivo spectral images [2] | tissue accumulation / specificity to the tumor in words ([1]; mouse, in vivo) | SST receptor subtype selectivity (SST-R2 and SST-R5) | affinity to hSST-R4 (hSST-R4)
32 ± 5 | 17 ± 3 | 37 ± 6 | – | 120 ± 18 | 4 ± 1 | 106 ± 16 | high and selective fluorescence | – | C[C@@H](O)[C@@H]1NC(=O)[C@H](CCCCN)NC(=O)[C@@H](Cc2c[nH]c3ccccc23)NC(=O)[C@H](Cc2c[nH]c3ccccc23)NC(=O)[C@H](Cc2ccccc2)NC(=O)CN(C(=O)[C@@H](Cc2ccccc2)NC(=O)CCNC(=S)Nc2ccc3c(c2)C(=O)OC32c3ccc(O)cc3Oc3cc(O)ccc32)CCSSCCN(CC(N)=O)C(=O)[C@H](Cc2ccccc2)NC1=O [Compound 62, 5-(aminothionyl)fluorescein-βAla-DPhe-GlyS2*-Phe-Trp-DTrp-Lys-Thr-Phe-GlyS2*-NH2] | no (lungs and kidney) or little (dermis) fluorescence | – | – | –
20 ± 3 | 12 ± 2 | 40 ± 6 | – | 120 ± 18 | 4 ± 1 | 110 ± 17 | – | – | C[C@@H](O)[C@@H]1NC(=O)[C@H](CCCCN)NC(=O)[C@@H](Cc2c[nH]c3ccccc23)NC(=O)[C@H](Cc2c[nH]c3ccccc23)NC(=O)[C@H](Cc2ccccc2)NC(=O)CN(C(=O)[C@@H](Cc2ccccc2)NC(=O)CCNC(=O)c2ccc3c(c2)C(=O)OC32c3ccc(O)cc3Oc3cc(O)ccc32)CCSSCCN(CC(N)=O)C(=O)[C@H](Cc2ccccc2)NC1=O [Compound 64, 5- and 6-carboxyfluorescein-βAla-DPhe-GlyS2*-Phe-Trp-DTrp-Lys-Thr-Phe-GlyS2*-NH2] | – | – | – | –
18 ± 3 | 5 ± 1 | 27 ± 4 | 10 ± 2 | 116 ± 17 | 2 ± 0.3 | 122 ± 18 | – | – | C[C@@H](O)[C@@H]1NC(=O)[C@H](CCCCN)NC(=O)[C@@H](Cc2c[nH]c3ccccc23)NC(=O)[C@H](Cc2c[nH]c3ccccc23)NC(=O)[C@H](Cc2ccccc2)NC(=O)CN(C(=O)[C@@H](Cc2ccccc2)NC(=O)CCCCNC(=S)Nc2ccc3c(c2)C(=O)OC32c3ccc(O)cc3Oc3cc(O)ccc32)CCSSCCN(CC(N)=O)C(=O)[C@H](Cc2ccccc2)NC1=O [Compound 70, 5-(aminothionyl)fluorescein-aminopentanoyl-DPhe-GlyS2*-Phe-Trp-DTrp-Lys-Thr-Phe-GlyS2*-NH2] | – | – | – | –

Continued, compound first:

Compound | Fluorescence intensity (a.u.), Kidney [1] [a.u.] | Fluorescence intensity (a.u.), Liver [1] [a.u.] | Fluorescence intensity (a.u.), Lung [1] [a.u.] | Fluorescence intensity (a.u.), Pancreas [1] [a.u.] | Fluorescence intensity (a.u.), Skin [1] [a.u.] | Fluorescence intensity (a.u.), Spleen [1] [a.u.] | Fluorescence intensity (a.u.), Tumor [1] [a.u.] | tumor fluorescence in ex vivo spectral images [2] | IC50 (hSST-R2) [nM] | fluorescence in normal organs in ex vivo spectral images [2] | tissue accumulation / specificity to the tumor in words ([1]; mouse, in vivo) | SST receptor subtype selectivity (SST-R2 and SST-R5) | affinity to hSST-R4 (hSST-R4)
C[C@@H](O)[C@@H]1NC(=O)[C@H](CCCCN)NC(=O)[C@@H](Cc2c[nH]c3ccccc23)NC(=O)[C@H](Cc2c[nH]c3ccccc23)NC(=O)[C@H](Cc2ccccc2)NC(=O)CN(C(=O)CCCNC(=O)c2ccc3c(c2)C(=O)OC32c3ccc(O)cc3Oc3cc(O)ccc32)CCSSCCN(CC(N)=O)C(=O)[C@H](Cc2ccccc2)NC1=O [Compound 48, 5- and 6-carboxyfluorescein-GABA-GlyS2*-Phe-Trp-DTrp-Lys-Thr-Phe-GlyS2*-NH2] | 15 ± 6 | 10 ± 5 | 25 ± 8 | 16 ± 5 | 90 ± 20 | 7 ± 2 | 50 ± 20 | – | – | – | – | – | –
C[C@@H](O)[C@@H]1NC(=O)[C@H](CCCCN)NC(=O)[C@@H](Cc2c[nH]c3ccccc23)NC(=O)[C@H](Cc2c[nH]c3ccccc23)NC(=O)[C@H](Cc2ccccc2)NC(=O)[C@@H](NC(=O)[C@@H](Cc2ccccc2)NC(=O)CCCNC(=S)Nc2ccc3c(c2)C(=O)OC32c3ccc(O)cc3Oc3cc(O)ccc32)CSSCCN(CC(N)=O)C(=O)[C@H](Cc2ccccc2)NC1=O [Compound 86, 5-(aminothionyl)fluorescein-GABA-DPhe-Cys*-Phe-Trp-DTrp-Lys-Thr-Phe-GlyS2*-NH2] | 23 ± 5 | 13 ± 3 | 70 ± 14 | 22 ± 6 | 65 ± 13 | 7 ± 1.4 | 626 ± 55 | high and selective tumor fluorescence | 1.7 | no fluorescence in normal organs | particularly high specificity to the tumor | – | –
GABA*-Phe-Trp-DTrp-Lys-Thr-Phe-GlyC3*-NH2 (XFWWKTFG; not fully specified; backbone cyclized; GABA; C-terminal amide) [PTR 3173] | – | – | – | – | – | – | – | – | – | – | – | selective for SST-R2 and SST-R5 | moderate affinity
